Consider 24 compounds from patent US8569311B2, “Pyridyl piperidine orexin receptor antagonists” (Merch Sharp & Dohme Corp., priority 2007, dated 2013).

pKi: −log10 of the molar value.

In one experiment the target is OX1R (Rattus norvegicus, UniProt P56718). The experiment in a line: radioligand binding assay, OX1 receptor. To be noted: membranes prepared from CHO cells expressing the OX1 receptor. The protocol:
(§1) The utility of the compounds in accordance with the present invention as orexin receptor OX1R and/or OX2R antagonists may be readily determined without undue experimentation by methodology well known in the art, including the “FLIPR Ca^2+ Flux Assay” (Okumura et al., Biochem. Biophys. Res. Comm 280:976-981, 2001). In a typical experiment the OX1 and OX2 receptor antagonistic activity of the compounds of the present invention was determined in accordance with the following experimental method. For intracellular calcium measurements, Chinese hamster ovary (CHO) cells expressing the rat orexin-1 receptor or the human orexin-2 receptor, are grown in Iscove's modified DMEM containing 2 mM L-glutamine, […], 1% hypoxanthine-thymidine supplement, 100 U/ml penicillin, 100 ug/ml streptomycin and 10% heat-inactivated fetal calf serum (FCS). The cells are seeded at 20,000 cells/well into Becton-Dickinson black 384-well clear bottom sterile plates coated with poly-D-lysine. All reagents were from GIBCO-Invitrogen Corp. The seeded plates are incubated overnight at 37° C. and 5% CO2. Ala-6,12 human orexin-A as the agonist is prepared as a 1 mM stock solution in 1% bovine serum albumin (BSA) and diluted in assay buffer (HBSS containing 20 mM HEPES, 0.1% BSA and 2.5 mM probenecid, pH7.4) for use in the assay at a final concentration of 70 pM. Test compounds are prepared as 10 mM stock solution in DMSO, then diluted in 384-well plates, first in DMSO, then assay buffer. On the day of the assay, cells are washed 3 times with 100 ul assay buffer and then incubated for 60 min (37° C., 5% CO2) in 60 ul assay buffer containing 1 uM Fluo-4AM ester, 0.02% pluronic acid, and 1% BSA. The dye loading solution is then aspirated and cells are washed 3 times with 100 ul assay buffer. 30 ul of that same buffer is left in each well. Within the Fluorescent Imaging Plate Reader (FLIPR, Molecular Devices), test compounds are added to the plate in a volume of 25 ul, incubated for 5 min and finally 25 ul of agonist is added. Fluorescence is measured for each well at 1 second intervals for 5 minutes and the height of each fluorescence peak is compared to the height of the fluorescence peak induced by 70 pM Ala-6,12 orexin-A with buffer in place of antagonist. For each antagonist, IC50 value (the concentration of compound needed to inhibit 50% of the agonist response) is determined. Alternatively, compound potency can be assessed by a radioligand binding assay (described in Bergman et. al. Bioorg. Med. Chem. Lett. 2008, 18, 1425-1430) in which the inhibition constant (Ki) is determined in membranes prepared from CHO cells expressing either the OX1 or OX2 receptor. The intrinsic orexin receptor antagonist activity of a compound which may be used in the present invention may be determined by these assays.

For another experiment, the target named is OX2R (Homo sapiens (Human), UniProt O43614). As to the kind of experiment: radioligand binding assay, OX2 receptor. The note with it: membranes prepared from CHO cells expressing the OX2 receptor. The protocol: as §1
Sequence of OX2R (O43614 whole entry): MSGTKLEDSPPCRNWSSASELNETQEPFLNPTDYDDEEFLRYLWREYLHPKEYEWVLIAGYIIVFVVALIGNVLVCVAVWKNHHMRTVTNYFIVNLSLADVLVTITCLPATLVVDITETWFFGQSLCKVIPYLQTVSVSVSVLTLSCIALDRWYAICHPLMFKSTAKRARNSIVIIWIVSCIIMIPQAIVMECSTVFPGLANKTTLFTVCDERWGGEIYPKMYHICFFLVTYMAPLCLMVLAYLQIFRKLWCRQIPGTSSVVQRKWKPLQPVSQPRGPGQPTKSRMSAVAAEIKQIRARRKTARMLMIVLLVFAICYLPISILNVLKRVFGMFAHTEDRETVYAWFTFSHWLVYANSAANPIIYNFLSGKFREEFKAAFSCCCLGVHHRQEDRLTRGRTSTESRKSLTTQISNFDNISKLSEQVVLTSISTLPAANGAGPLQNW

Sequence of OX1R (P56718 whole entry, looked up): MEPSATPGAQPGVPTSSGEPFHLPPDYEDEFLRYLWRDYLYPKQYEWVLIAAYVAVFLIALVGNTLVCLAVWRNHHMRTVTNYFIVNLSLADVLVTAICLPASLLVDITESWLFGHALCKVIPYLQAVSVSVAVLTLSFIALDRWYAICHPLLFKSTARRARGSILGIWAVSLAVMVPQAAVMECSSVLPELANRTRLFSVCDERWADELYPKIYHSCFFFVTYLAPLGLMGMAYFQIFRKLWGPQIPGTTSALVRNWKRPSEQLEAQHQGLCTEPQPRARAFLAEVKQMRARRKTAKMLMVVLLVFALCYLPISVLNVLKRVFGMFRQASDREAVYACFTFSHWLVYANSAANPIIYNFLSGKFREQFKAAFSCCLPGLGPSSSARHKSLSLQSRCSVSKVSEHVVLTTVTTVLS

As a reminder, the pKi is the Ki on a negative log10 scale, so that one unit is a factor of ten. A low value points to a large Ki. For `Cc1ccc(-n2nccn2)c(C(=O)N2CCCC(COc3ccc(F)nc3)C2)c1` (stereo not drawn) [Compound 2-1], the pKi at OX1R is 7.02; at OX2R, 7.54.
For the compound `Cc1ccc(-c2ccccc2)c(C(=O)N2C[C@H](COc3ccc(F)cn3)CC[C@H]2C)c1` [Compound 1-10, 5-fluoro-2-({(3R,6R)-6-methyl-1-[(4-methylbiphenyl-2-yl)carbonyl]piperidin-3-yl}methoxy)pyridine], the pKi was 9.15 on OX1R and 10.10 at OX2R.
In the case of `C[C@@H]1CC[C@@H](COc2ccc(F)cn2)CN1C(=O)c1cc(CO)ccc1-n1nccn1` [Compound G-1, [3-[((2R,5R)-5-{[(5-Fluoropyridin-2-yl)oxy]methyl}-2-methylpiperidin-1-yl)carbonyl]-4-(2H-1,2,3-triazol-2-yl)phenyl]methanol], the figures for the pKi at OX1R and on OX2R were 7.85 and 8.77, respectively.
Regarding `Cc1cccc(OC[C@@H]2CC[C@@H](C)N(C(=O)c3ccccc3-n3nccn3)C2)n1` [Compound C-4, 2-Methyl-6-({(3R,6R)-6-methyl-1-[2-(2H-1,2,3-triazol-2-yl)benzoyl]piperidin-3-yl}methoxy)pyridine], the values for the pKi at OX1R and at OX2R were 7.66 and 9.17, respectively.
Consider `C[C@@H]1CC[C@@H](COc2ccc(F)cn2)CN1C(=O)c1ccccc1-c1ncccn1` [Compound 1-28, 2-{2-[((2R,5R)-5-{[(5-fluoropyridin-2-yl)oxy]methyl}-2-methylpiperidin-1-yl)carbonyl]phenyl}pyrimidine], for which the pKi on OX1R is 7.77; on OX2R, 9.17.
Turning to `C[C@@H]1CC[C@@H](COc2ccc(F)cn2)CN1C(=O)c1c(F)cccc1-c1ncccn1` [Compound 1-34, 2-{3-fluoro-2-[((2R,5R)-5-{[(5-fluoropyridin-2-yl)oxy]methyl}-2-methylpiperidin-1-yl)carbonyl]phenyl}pyrimidine], the results for the pKi at OX1R and on OX2R were 8.09 and 9.17, respectively.
For the compound `CCOc1ccccc1C(=O)N1C[C@H](COc2ccc(F)cn2)CC[C@H]1C` [Compound 1-24, 2-{[(3R,6R)-1-(2-ethoxybenzoyl)-6-methylpiperidin-3-yl]methoxy}-5-fluoropyridine], the pKi was 7.44 on OX1R and 8.77 on OX2R.
The like results for `Cc1ccc(-c2ncccn2)c(C(=O)N2C[C@H](COc3ccc(F)cn3)CC[C@H]2C)c1` [Compound E-5, 2-{2-[((2R,5R)-5-{[(5-Fluoropyridin-2-yl)oxy]methyl}-2-methylpiperidin-1-yl)carbonyl]-4-methylphenyl}pyrimidine] were, in that order, 8.54 and 9.51.
For `C[C@@H]1CC[C@@H](COc2ccnc(Cl)c2)CN1C(=O)c1ccccc1-n1nccn1` [Compound 1-43, 2-chloro-4-({(3R,6R)-6-methyl-1-[2-(2H-1,2,3-triazol-2-yl)benzoyl]piperidin-3-yl}methoxy)pyridine], the pKi on OX1R was 6.85; on OX2R it was 7.66.
As for `C[C@@H]1CC[C@@H](COc2ccc(F)cn2)CN1C(=O)c1ncccc1-c1ccccc1` [Compound 1-38, 2-[((2R,5R)-5-{[(5-fluoropyridin-2-yl)oxy]methyl}-2-methylpiperidin-1-yl)carbonyl]-3-phenylpyridine], the pKi is 7.07 at OX1R and 8.72 on OX2R.
Regarding `Cc1ccc(-c2ccccn2)c(C(=O)N2C[C@H](COc3ccc(F)cn3)CC[C@H]2C)c1` [Compound 1-15, 5-fluoro-2-{[(3R,6R)-6-methyl-1-(5-methyl-2-pyridin-2-ylbenzoyl)piperidin-3-yl}methoxy}pyridine], the pKi is 8.49 at OX1R and 9.46 at OX2R.
The like results for `C[C@@H]1CC[C@@H](COc2ccc(F)cn2)CN1C(=O)c1ccccc1-n1cccn1` [Compound 1-37, 5-fluoro-2-({(3R,6R)-6-methyl-1-[2-(1H-pyrazol-1-yl)benzoyl]piperidin-3-yl}methoxy)pyridine] were, in that order, 7.26 and 8.82.
For `C[C@@H]1CC[C@@H](COc2ccc(F)cn2)CN1C(=O)c1cc(C(=O)O)ccc1-n1nccn1` [Compound F-4, 3-[((2R,5R)-5-{[(5-Fluoropyridin-2-yl)oxy]methyl}-2-methylpiperidin-1-yl)carbonyl]-4-(2H-1,2,3-triazol-2-yl)benzoic acid], the pKi on OX1R is 6.59; at OX2R it was 6.39.
As for `Cc1ccc(-c2cn[nH]c2)c(C(=O)N2C[C@H](COc3ccc(F)cn3)CC[C@H]2C)c1` [Compound 1-21, 5-fluoro-2-({(3R,6R)-6-methyl-1-[5-methyl-2-(1H-pyrazol-4-yl)benzoyl]piperidin-3-yl}methoxy)pyridine], the pKi is 8.15 at OX1R and 9.32 at OX2R.
With `Cc1ccc(-n2nccn2)c(C(=O)N2C[C@H](COc3ccc(F)cn3)CC[C@H]2C)c1` [Compound A-9, 5-Fluoro-2-({(3R,6R)-6-methyl-1-[5-methyl-2-(2H-1,2,3-triazol-2-yl)benzoyl]piperidin-3-yl}methoxy)pyridine], the pKi is 9.00 at OX1R and 9.62 at OX2R.
As for `C[C@@H]1CC[C@@H](COc2ccc(F)cn2)CN1C(=O)c1cc(F)ccc1-c1ncccn1` [Compound 1-19, 2-{4-fluoro-2-[((2R,5R)-5-{[(5-fluoropyridin-2-yl)oxy]methyl}-2-methylpiperidin-1-yl)carbonyl]phenyl}pyrimidine], the pKi at OX1R was 8.00; at OX2R, 9.28.
In the same order, the values of `C[C@@H]1CC[C@@H](COc2ccc(F)cn2)CN1C(=O)c1cc(F)ccc1-n1nccn1` [Compound 1-8, 5-fluoro-2-({(3R,6R)-1-[5-fluoro-2-(2H-1,2,3-triazol-2-yl)benzoyl]-6-methylpiperidin-3-yl}methoxy)pyridine] are 8.17 and 9.30.
With `C[C@@H]1CC[C@@H](COc2ccc(Br)nc2)CN1C(=O)c1ccccc1-n1nccn1` [Compound 1-42, 2-bromo-5-({(3R,6R)-6-mcthyl-1-[2-(2H-1,2,3-triazol-2-yl)benzoyl]piperidin-3-yl}methoxy)pyridine], the pKi at OX1R is 7.19; on OX2R, 8.42.
In the same order, the values of `C[C@@H]1CC[C@@H](COc2ccc(F)cn2)CN1C(=O)c1cc(C(=O)O)ccc1-c1ncccn1` [Compound H-4, 3-[((2R,5R)-5-{[(5-fluoropyridin-2-yl)oxy]methyl}-2-methylpiperidin-1-yl)carbonyl]-4-pyrimidin-2-ylbenzoic acid] are 7.08 and 7.43.
In the same order, the values of `C[C@@H]1CC[C@@H](COc2ccc(F)cn2)CN1C(=O)c1cc(CO)ccc1-c1ncccn1` [Compound I-7, {3-[((2R,5R)-5-{[(5-Fluoropyridin-2-yl)oxy]methyl}-2-methylpiperidin-1-yl)carbonyl]-4-pyrimidin-2-ylphenyl}methanol] are 7.52 and 8.70.
Turning to `C[C@@H]1CC[C@@H](COc2ccc(F)cn2)CN1C(=O)c1ccccc1-n1nccn1` [Compound 1-4, 5-fluoro-2-({(3R,6R)-6-methyl-1-[2-(2H-1,2,3-triazol-2-yl)benzoyl]piperidin-3-yl}methoxy)pyridine], the values for the negative-log Ki (pKi) on OX1R and at OX2R were 7.92 and 9.43, respectively.
On to `Cc1ccc(-c2nccs2)c(C(=O)N2C[C@H](COc3ccc(F)cn3)CC[C@H]2C)c1` [Compound 1-1, 5-fluoro-2-({(3R,6R)-6-methyl-1-[5-methyl-2-(1,3-thiazol-2-yl)benzoyl]piperidin 3-yl}methoxy)pyridine], for which the pKi is 8.74 at OX1R and 9.62 at OX2R.
For `Cc1ccc(-c2cnccn2)c(C(=O)N2C[C@H](COc3ccc(F)cn3)CC[C@H]2C)c1` [Compound B-3, 2-{2-[((2R,5R)-5-{[(5-Fluoropyridin-2-yl)oxy]methyl}-2-methylpiperidin-1-yl)carbonyl]-4-methylphenyl}pyrazine], the pKi was 8.48 on OX1R and 9.27 at OX2R.
Consider `C[C@@H]1CC[C@@H](COc2ccc(F)cn2)CN1C(=O)c1cccc2cc[nH]c12` [Compound 1-27, 7-[((2R,5R)-5-{[(5-fluoropyridin-2-yl)oxy]methyl}-2-methylpiperidin-1-yl)carbonyl]-1H-indole], for which the pKi at OX1R is 7.12; at OX2R, 8.00.
